Test results as given in patent US11987586B1 (TAKEDA PHARMACEUTICAL COMPANY LIMITED, priority 2022, dated 2024).

molecular target: T1, human OX2 receptor (Homo sapiens, UniProt O43614); assay: Measurement of orexin type 2 receptor agonist activity (calcium fluorescence, Fluo-4, FDSS); format: cell-based; conditions: 3 uM test compound; CHO cells expressing human OX2 receptor; DMSO = 0%, 10 nM orexin A (human) = 100%
T1 construct: expressed in transfected cells
T1 sequence (O43614 1-444): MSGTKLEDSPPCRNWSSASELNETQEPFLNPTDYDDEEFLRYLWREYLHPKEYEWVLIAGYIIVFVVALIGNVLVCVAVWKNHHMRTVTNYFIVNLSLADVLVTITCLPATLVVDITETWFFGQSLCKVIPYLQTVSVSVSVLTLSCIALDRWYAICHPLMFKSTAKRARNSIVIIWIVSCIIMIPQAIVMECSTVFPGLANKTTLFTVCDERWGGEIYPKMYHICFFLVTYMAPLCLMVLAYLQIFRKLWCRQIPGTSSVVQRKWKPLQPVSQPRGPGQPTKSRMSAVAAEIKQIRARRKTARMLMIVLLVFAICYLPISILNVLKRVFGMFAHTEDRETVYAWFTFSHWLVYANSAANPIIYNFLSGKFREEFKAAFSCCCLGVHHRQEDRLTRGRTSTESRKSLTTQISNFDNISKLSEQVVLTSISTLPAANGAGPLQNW
Experimental: In order to obtain cell clones that stably express human orexin type 2 receptor, human orexin type 2 (residues 1-444, NCBI Reference Sequence: AK314279) was constructed in a pcDNA3.1 (+) vector (Invitrogen) to express in mammalian cells. This plasmid DNA was transfected into CHO-K1 cells by electroporation, and stable clones were obtained by limiting dilution using resistance to G418 as a selection marker.
CHO cells in which human OX2 receptor was forcibly expressed were seeded at 10,000 cells/well into a 384-well black transparent bottom plate (BD falcon), and were incubated at 37° C., 5% CO2 for 1 day after incubation at room temperature for 30 minutes. After removing the cell plate medium, assay buffer containing calcium indicator A (HBSS (Thermo Fisher Scientific), 20 mM HEPES (Thermo Fisher Scientific), 0.1% BSA (Sigma-Aldrich), 2.5 μg/mL Fluo-4 AM (Dojin Kagaku), 0.08% Pluronic F127 (Dojin Kagaku), 1.25 mM probenecid (Dojin Kagaku)) was added at 30 μL/well. After incubation in a 5% CO2 incubator at 37° C. for 30 minutes, it was incubated at room temperature for another 30 minutes. Add 10 μL/well of the test compound diluted with assay buffer B (HBSS, 20 mM HEPES, 0.1% BSA), and use FDSS μCELL (Hamamatsu Photonics) to measure the fluorescence value every 1 second for 1 minute, and then every 2 seconds for 1 minute. It was measured for 1 minute and 40 seconds. The amount of fluorescence value when DMSO is added instead of the test compound is defined as 0%, and the amount of fluorescence value when orexin A (human) (Peptide Institute) with a final concentration of 10 nM is added is defined as 100%. The activity (%) of the test compound was calculated.

| Structure (SMILES) | OX2R agonist activity (3 uM, %) |
| --- | --- |
| CCS(=O)(=O)N[C@H]1Cc2cn(-c3cnc4cccc(-c5c(F)cccc5F)n34)c(=O)n2C1 [Example 37, N-{(6S)-2-[5-(2,6-difluorophenyl)imidazo[1,2-a]pyridin-3-yl]-3-oxo-2,5,6,7-tetrahydro-3H-pyrrolo[1,2-c]imidazol-6-yl}ethanesulfonamide] | 101% |
| CCS(=O)(=O)N[C@@H]1Cn2c(cn(-c3noc4cc(Cl)cc(-c5c(F)cc(F)cc5F)c34)c2=O)C1(F)F [Example 39, N-{(6R)-2-[6-chloro-4-(2,4,6-trifluorophenyl)-1,2-benzoxazol-3-yl]-7,7-difluoro-3-oxo-2,5,6,7-tetrahydro-3H-pyrrolo[1,2-c]imidazol-6-yl}ethanesulfonamide] | 106% |
| CS(=O)(=O)N[C@@H]1CN2C(=O)N(c3noc4cc(Cl)c(F)c(-c5c(F)cc(F)cc5F)c34)C[C@@H]2C1(F)F [Example 40, N-{(6R,7aR)-2-[6-chloro-5-fluoro-4-(2,4,6-trifluorophenyl)-1,2-benzoxazol-3-yl]-7,7-difluoro-3-oxohexahydro-1H-pyrrolo[1,2-c]imidazol-6-yl}methanesulfonamide] | 103% |
| O=C1N(c2noc3cccc(-c4c(F)cccc4F)c23)C[C@@H]2C[C@H](NS(=O)(=O)C(F)F)CN12 [Example 43, N-{(6S,7aS)-2-[4-(2,6-difluorophenyl)-1,2-benzoxazol-3-yl]-3-oxohexahydro-1H-pyrrolo[1,2-c]imidazol-6-yl}-1,1-difluoromethanesulfonamide] | 100% |
| CCS(=O)(=O)N[C@H]1C[C@@H]2CN(c3noc4cccc(-c5c(F)cccc5F)c34)C(=O)N2C1 [Example 49, N-{(6S, 7aR)-2-[4-(2,6-difluorophenyl)-1,2-benzoxazol-3-yl]-3-oxohexahydro-1H-pyrrolo[1,2-c]imidazol-6-yl}ethanesulfonamide] | 94% |
| CCS(=O)(=O)N[C@H]1C[C@H]2CN(c3nsc4cccc(-c5c(F)cccc5F)c34)C(=O)N2C1 [Example 55, N-{(6S,7aS)-2-[4-(2,6-difluorophenyl)-1,2-benzothiazol-3-yl]-3-oxohexahydro-1H-pyrrolo[1,2-c]imidazol-6-yl}ethanesulfonamide] | 108% |
| CCS(=O)(=O)N[C@@H]1CN2C(=O)N(c3noc4cccc(-c5c(F)cccc5F)c34)C[C@]2(C)C1 [Example 57, N-{(6S,7aS)-2-[4-(2,6-difluorophenyl)-1,2-benzoxazol-3-yl]-7a-methyl-3-oxohexahydro-1H-pyrrolo[1,2-c]imidazol-6-yl}ethanesulfonamide] | 88% |
| CCS(=O)(=O)N[C@H]1C[C@H]2CN(c3noc4c(Cl)ccc(-c5c(F)cccc5F)c34)C(=O)N2C1 [Example 58, N-{(6S,7aS)-2-[7-chloro-4-(2,6-difluorophenyl)-1,2-benzoxazol-3-yl]-3-oxohexahydro-1H-pyrrolo[1,2-c]imidazol-6-yl}ethanesulfonamide] | 88% |
| CCS(=O)(=O)N[C@H]1C[C@H]2CN(c3noc4ccc(F)c(-c5c(F)cccc5F)c34)C(=O)N2C1 [Example 66, N-{(6S,7aS)-2-[4-(2,6-difluorophenyl)-5-fluoro-1,2-benzoxazol-3-yl]-3-oxohexahydro-1H-pyrrolo[1,2-c]imidazol-6-yl}ethanesulfonamide] | 97% |
| CCS(=O)(=O)N[C@@H]1Cn2c(cn(-c3noc4cc(Cl)cc(-c5c(F)cccc5F)c34)c2=O)C1(F)F [Example 68, N-{(6R)-2-[6-chloro-4-(2,6-difluorophenyl)-1,2-benzoxazol-3-yl]-7,7-difluoro-3-oxo-2,5,6,7-tetrahydro-3H-pyrrolo[1,2-c]imidazol-6-yl}ethanesulfonamide] | 109% |
| CCS(=O)(=O)N[C@@H]1Cn2c(cn(-c3noc4cccc(-c5c(F)cccc5F)c34)c2=O)C1(C)C [Example 70, N-{(6S)-2-[4-(2,6-difluorophenyl)-1,2-benzoxazol-3-yl]-7,7-dimethyl-3-oxo-2,5,6,7-tetrahydro-3H-pyrrolo[1,2-c]imidazol-6-yl}ethanesulfonamide] | 105% |

Results, then the compound that gave them:

| OX2R agonist activity (3 uM, %) | Structure (SMILES) |
| --- | --- |
| 106% | CS(=O)(=O)N[C@@H]1CN2C(=O)N(c3noc4cccc(-c5c(F)cccc5F)c34)C[C@@H]2C1(F)F [Example 34, N-{(6R,7aR)-2-[4-(2,6-Difluorophenyl)-1,2-benzoxazol-3-yl]-7,7-difluoro-3-oxohexahydro-1H-pyrrolo[1,2-c]imidazol-6-yl}methanesulfonamide] |
| 111% | CS(=O)(=O)N[C@@H]1CN2C(=O)N(c3noc4ccc(F)c(-c5c(F)cccc5F)c34)C[C@@H]2C1(F)F [Example 38, N-{(6R,7aR)-2-[4-(2,6-difluorophenyl)-5-fluoro-1,2-benzoxazol-3-yl]-7,7-difluoro-3-oxohexahydro-1H-pyrrolo[1,2-c]imidazol-6-yl}methanesulfonamide] |
| 100% | CCS(=O)(=O)N[C@H]1C[C@H]2CN(c3noc4cc(OC)cc(-c5c(F)cccc5F)c34)C(=O)N2C1 [Example 41, N-{(6S,7aS)-2-[4-(2,6-difluorophenyl)-6-methoxy-1,2-benzoxazol-3-yl]-3-oxohexahydro-1H-pyrrolo[1,2-c]imidazol-6-yl}ethanesulfonamide] |
| 102% | CS(=O)(=O)N[C@@H]1Cn2c(cn(-c3noc4cc(F)cc(-c5c(F)cccc5F)c34)c2=O)C1(F)F [Example 46, N-{(6R)-2-[4-(2,6-difluorophenyl)-6-fluoro-1,2-benzoxazol-3-yl]-7,7-difluoro-3-oxo-2,5,6,7-tetrahydro-3H-pyrrolo[1,2-c]imidazol-6-yl}methanesulfonamide] |
| 91% | CS(=O)(=O)N[C@@H]1CN2C(=O)N(c3noc4ccc(F)c(-c5c(F)cc(F)cc5F)c34)C[C@@H]2C1(F)F [Example 47, N-{(6R,7aR)-7,7-Difluoro-2-[5-fluoro-4-(2,4,6-trifluorophenyl)-1,2-benzoxazol-3-yl]-3-oxohexahydro-1H-pyrrolo[1,2-c]imidazol-6-yl}methanesulfonamide] |
| 99% | CCS(=O)(=O)N[C@H]1C[C@H]2CN(c3noc4cc(C5CC5)cc(-c5c(F)cccc5F)c34)C(=O)N2C1 [Example 56, N-{(6S,7aS)-2-[6-cyclopropyl-4-(2,6-difluorophenyl)-1,2-benzoxazol-3-yl]-3-oxohexahydro-1H-pyrrolo[1,2-c]imidazol-6-yl}ethanesulfonamide] |
| 99% | CCS(=O)(=O)N[C@H]1C[C@H]2CN(c3noc4cccc(-c5c(F)cc(F)cc5F)c34)C(=O)N2C1 [Example 65, N-{(6S,7aS)-3-oxo-2-[4-(2,4,6-trifluorophenyl)-1,2-benzoxazol-3-yl]hexahydro-1H-pyrrolo[1,2-c]imidazol-6-yl}ethanesulfonamide] |
| 97% | CCS(=O)(=O)N[C@@H]1CN2C(=O)N(c3noc4cc(Cl)cc(-c5c(F)cccc5F)c34)C[C@@H]2C1(F)F [Example 67, N-{(6R,7aR)-2-[6-chloro-4-(2,6-difluorophenyl)-1,2-benzoxazol-3-yl]-7,7-difluoro-3-oxohexahydro-1H-pyrrolo[1,2-c]imidazol-6-yl}ethanesulfonamide] |
| 96% | CCS(=O)(=O)N[C@@H]1CN2C(=O)N(c3noc4cc(F)cc(-c5c(F)cccc5F)c34)C[C@@H]2C1(F)F [Example 69, N-{(6R,7aR)-2-[4-(2,6-difluorophenyl)-6-fluoro-1,2-benzoxazol-3-yl]-7,7-difluoro-3-oxohexahydro-1H-pyrrolo[1,2-c]imidazol-6-yl}ethanesulfonamide] |
| 98% | CS(=O)(=O)N[C@@H]1CN2C(=O)N(c3noc4cc(F)cc(-c5c(F)cccc5F)c34)C[C@@H]2C1(F)F [Example 72, N-{(6R,7aR)-2-[4-(2,6-Difluorophenyl)-6-fluoro-1,2-benzoxazol-3-yl]-7,7-difluoro-3-oxohexahydro-1H-pyrrolo[1,2-c]imidazol-6-yl}methanesulfonamide] |
